The nature of test [1]: Inhibition of CD19 phosphopeptide binding to p85 N-terminal SH2 domain at 20 uM.
The target in test [2] is Platelet-derived growth factor receptor (Homo sapiens, UniProt P09619+P16234). Nature of the test: Inhibition of PDGF-beta receptor binding to p85 SH2-domain. Format: protein-complex assay.
Test [3] can be described thus: Inhibition of CD19 phosphopeptide binding to p85 N-terminal SH2 domain at 50 uM.

A word on the inhibition: it is how much of the control response was suppressed. One may read the IC50 as the concentration that gives 50% inhibition. The low end stands for inhibition by little substance, the high end for a need for much substance.

The compound `CCCCN(CCCC)C(=O)[C@H](C)NC(=O)[C@@H](NC(=O)[C@H](Cc1ccc(OP(=O)(O)O)cc1)NC(C)=O)C(C)C` showed an inhibition in test [1] of 98%. This compound registered a 50% inhibitory concentration (IC50) in test [2] of 77 nM.

`CCCCN(CCCC)C(=O)[C@H](C)NC(=O)[C@@H](NC(=O)[C@H](Cc1ccn(CP(=O)(O)O)c(=O)c1)NC(C)=O)C(C)C` returned an inhibition in test [3] of 50%.
